Results as given in patent US20080305092A1, “Methods of treating autoimmune disease via CTLA-4IG” (THE REGENTS OF THE UNIVERSITY OF MICHIGAN, priority 1993, published 2008).

What was measured:
Jurkat line JHMI-2.2 = assay: Cell death of Jurkat cells, visual grading and trypan blue; format: cell-based, human; conditions: scored after 1 to 3 days; 9.3 mAb 10 μg/ml, carbacol 30 μM
Protocol: A series of experiments were done to test whether anti-CD28 mAb might prevent cell death in mature T cells. Jurkat leukemia cells are commonly used as an example of mature T cells that mimic physiologic effects found in peripheral blood T cells. […] The Jurkat line JHMI-2.2 was obtained from A. Weiss (UCSF); the muscarinic M1 receptor subtype has been transfected and is stably expressed in these cells. JHMI-2.2 cells, 0.3×10^6/well, were added to culture wells in complete medium, or to wells that contained plastic-adsorbed anti-CD3 mAb G19-4, in the presence or absence of 9.3 mAb 10 μg/ml, or 9.3 mAb alone. Cell death was scored after 1 to 3 days of culture and graded as 0 (none), 1+(20 to 70% of cells dead), and 2+(70 to 100% of cells dead), and was determined by visual inspection of the wells, and confirmed by trypan blue permeability.

[1] = tested on: CD28-stimulated IL-2 production of T cells; assay: CD28-stimulated IL-2 production with or without herbimycin A, bioassay; conditions: for IL-2: cells cultured in the single agent only, 24 h
Protocol: Cells. The CD28^+ subset of T cells was isolated from peripheral blood T lymphocytes by negative selection using immunoabsorption with goat anti-mouse Ig-coated magnetic particles as previously described in June, C. […] In some instances, T cells or Jurkat cells were cultured in complete media, or in complete media with 5 ng/ml PMA (Sigma Chemical Co., St. Louis, Mo.) or OKT3 beads (±5 beads/cell) before experiments.
To address the potential role of tyrosine kinases in CD28-triggered signaling, the effect of herbimycin A, an inhibitor of the src family protein tyrosine kinases (see Uehara, Y. et al., Biochem. Biophys. Res. Commun., 163:803 (1989)), on the CD28-triggered enhancement of IL-2 production was investigated. T cells were cultured overnight in the absence (depicted as open bars in FIG. 15) or presence (depicted as filled bars in FIG. 15) of herbimycin A (1 μM). […] Cell-free supernatant was collected, dialized to remove herbimycin A and serial dilutions were analyzed for IL-2 content by bioassay as described in June, J. Immunol., supra (1989).

CD28^+ T cells [2] = assay: Cell cycle analysis (S+G2+M), propidium iodide flow cytometry; format: cell-based, human; conditions: 48 h after stimulation
Protocol: In separate experiments, the relative levels of IL-2 for each of the culture conditions above were independently confirmed using a commercially available ELISA assay (Genzyme Corp., Boston, Mass.). TNF-α/LT levels were measured using a semi-automated L929 fibroblast lytic assay as previously described by Kunkel et al., J. Biol. Chem., 263:5380-5384 (1988). Units of TNF-α/LT were defined using an internal standard for TNF-α (Genzyme Corp., Boston Mass.). […] IFN-γ was measured by radioimmunoassay using a commercially available kit (Centocor, Malvern, Pa.). Units for IFN-γ were determined from a standard curve using ^125I-labeled human IFN-γ provided in the test kit. GM-CSF was detected by stimulation of proliferation of the human GM-CSF-dependent cell line AML-193, as described by Lange et al., Blood, 70:192-199 (1987), in the presence of neutralizing monoclonal antibodies to TNF-α and LT. The ^3H-thymidine uptake induced by 10 ng/ml of purified GM-CSF (Genetics Institute, Cambridge, Mass.) was defined as 100 U. Separate aliquots of cells were recovered 48 h after stimulation and assayed for the percentage of cells in late stages of the cell cycle (S+G2+M) by staining of cells with propidium iodide and analysis by flow cytometry as previously described by Thompson et al., Nature, 314:363-366 (1985). […]

CD28^+ T cells [3] = assay: Lymphokine secretion (IL-2, TNF-α/LT, IFN-γ, GM-CSF) by stimulated CD28+ T cells, with or without cyclosporine; format: cell-based, human; conditions: supernatant at 24 h; CSP 0.6 μg/ml where in label
CD28^+ T cells [4] = assay: IL-4, IL-5, IFN and IL-2 in supernatants by ELISA, initial stimulation and restimulation
CD28^+ T cells [5] = assay: T cell proliferation (3H-thymidine) in the presence of cyclosporine or dexamethasone; format: cell-based, human
Protocol: T cells, enriched by nylon wool filtration as described by Julius, et al., Euro. […] The above combinations also included […] titrations (from 25 ng/ml to 1.6 μg/ml) of cyclosporine (CSP) (Sandoz, Hanover, N.J.) dissolved in ethanol-Tween 80 as described by Wiesinger, et al., Immunobiol., 156:454-463 (1979).
^3H-thymidine incorporation was measured on day 3 of culture and the results representative of eight independent experiments are depicted in FIG. 3. […] Table 6 below illustrates the effects of cyclosporine on CD3-induced proliferation of CD28^+ T cells cultured at approximately 5×10^4 cells/well in flat-bottomed 96-well microtiter plates (CoStar, Cambridge, Mass.) under the following conditions: immobilized Mab G19-4; or immobilized mAb G19-4 and mAb 9.30 100 ng/ml; or immobilized mAb G19-4 and PMA 1 ng/ml; or Mab 9.3 100 ng/ml and PMA 1 ng/ml. Cyclosporine was prepared as above and included in the cultures at 0, 0.2, 0.4, 0.8, 1.2 μg/ml.
^3H-thymidine incorporation was determined on day 3 of culture as above. […] CD28^+ T cells cultured in the absence of cyclosporine were given cyclosporine diluent. ^3H-thymidine incorporation of cells cultured in medium, or PMA, or monoclonal antibody 9.3 only were less than 150 cpm.

[6] = tested on: CD28-induced tyrosine phosphorylation; assay: Anti-phosphotyrosine immunoblot of PMA-treated T cells; format: cell-based, human; conditions: T cells treated overnight with PMA 5 ng/ml and herbimycin A
Protocol: Immunoblot analysis of protein tyrosine phosphorylation. Details of the immunoblot assay with anti-phosphotyrosine antibodies has been described in Hsi, E. D. et al., J. Biol. Chem., 264:10836 (1989) and June, C. H. et al., J. Immunol., 144:1591 (1990). Cells were suspended at 5−10×10^7 cells/ml in reaction media, i.e., HBSS containing 0.8% FCS and 20 Mm Hepes at 37° C. at time—3 m and stimulated at time 0 m. mAbs were used at 10 μg/ml final concentration. For crosslinking, biotinylated mAbs were incubated with cells for 5-8 m at room temperature, the cells prewarmed at time 3 min and stimulated with avidin (Sigma Chemical Co.) at a final concentration of 40 μg/ml at time 0. Stimulation was terminated by the addition of ice-cold 10× lysis buffer, yielding a final concentration of 0.5% Triton X-100. See June, J. Immunol., supra (1990).
CD28-induced tyrosine phosphorylation prevented by CD45 and by herbimycin. […] T cells were treated overnight with PMA (5 ng/ml) in the presence of the indicated concentration of herbimycin A or in control medium. […] Detergent-soluble proteins were processed as previously described.
To address the effects of phosphatases on CD28-mediated signal transduction, T cells were cultured overnight with PMA (5 ng/ml). […] Monoclonal antibodies were crosslinked with avidin at time 0. The reaction was terminated after 2 m. […]

K562 = assay: Cytotoxicity of activated cells against K562; format: cell-based, human
Protocol: (§1) One lytic unit is equivalent to 20% lysis of 5×10^3 target cells per 1×10^6 effector cells as discussed in Press, H. F. et al., J. Clin. Immunol. 1:51-83 (1981). Various targets, including Daudi and K562, were tested.
In 5 different subjects, PBL were compared with T cells (E^+) in their ability to kill Daudi, K562, and BSB cells 8 days after being activated with OKT3. These experiments were performed in X-Vivo 10 supplemented with 5% human serum (HS). The mean cytotoxicity in 5 normal subjects using PBL directed at Daudi, K562, and BSB were 15.0, 7.4, and 9.2 LU, respectively. In T cells from the same 5 subjects, the mean cytotoxicity directed at Daudi, K562, and BSB were 14.3, 7.7, and 9.3 LU, respectively.
(§2) Cytotoxicity as a function of in vitro time in cell culture. […] Cytotoxicity was a strong function of culture duration however, with <0.1, 24, 3.5, 0.5, 1.0 LU at 0, 8, 15, 22, and 29 days of culture. Similar results were found when Daudi was the target, with <0.01, 23, 5, 2, and 5 LU at 0, 8, 15, 22, and 29 days of culture.
Cytotoxicity induced by soluble or immobilized OKT3. In 7 experiments, cytotoxicity mediated by T cells after activation was compared with soluble or immobilized OKT3. Both methods induced cytotoxicity directed at Daudi and K562. Soluble OKT3 activated T cells mediated a mean cytotoxicity of 27 LU (SD-18) directed at Daudi and a mean cytotoxicity of 21 LU (SD-16) directed at K562. Immobilized OKT3 activated T cells mediated a mean cytotoxicity of 22 LU (SD-16) directed at Daudi and a mean cytotoxicity of 12 LU (SD-8) directed at K562. These experiments were performed with E^+ cells in RPMI 1640 supplemented with 10% fetal bovine serum (FBS). Cytotoxicity was assessed 7 to 8 days after triggering with soluble (10 ng/ml) or immobilized (2 μg/ml) OKT3.
(§3) Although the BMMNC population initially contained only 25% CD3^+ cells, proliferative and cytotoxic responses were excellent after 2 weeks of culture. […] In 4 experiments using normal bone marrow or autologous bone marrow, there was a median of 89-fold expansion of cells (range 18- to 173-fold) after 9 to 19 days of culture. Mean cytotoxicity directed at Daudi and K562 mediated by BMMNC stimulated with OKT3 was 5.5 LU (range 2-11) and 4.3 LU (range 2-8), respectively. […] Either soluble OKT3 10 ng/ml(s) or immobilized OKT3 (coated with 2 μg/ml)(I) were added as indicated.
(§4) Proliferative and cytotoxic responses from 3 patients were tested. […] Proliferation was assessed on day 3 of culture and cytotoxicity on day 7.

PBL, T cells or BMMNC = assay: Proliferation and expansion of PBL, T cells or BMMNC after OKT3 activation; format: cell-based, human; conditions: for Proliferation ^3H incorp.: day 3
Text: as §2, §3, §4

Daudi = assay: Cytotoxicity of activated cells against Daudi; format: cell-based, human
Protocol: as §1
In 5 different subjects, PBL were compared with T cells (E^+) in their ability to kill Daudi, K562, and BSB cells 8 days after being activated with OKT3. These experiments were performed in X-Vivo 10 supplemented with 5% human serum (HS). […]
Cytotoxicity induced by soluble or immobilized OKT3. In 7 experiments, cytotoxicity mediated by T cells after activation was compared with soluble or immobilized OKT3. […] These experiments were performed with E^+ cells in RPMI 1640 supplemented with 10% fetal bovine serum (FBS). Cytotoxicity was assessed 7 to 8 days after triggering with soluble (10 ng/ml) or immobilized (2 μg/ml) OKT3.
Either soluble OKT3 10 ng/ml(s) or immobilized OKT3 (coated with 2 μg/ml)(I) were added as indicated. […]

[7] = RESTIMULATION after 8 days, further 24 h
[8] = BMMNC, 14 days after activation, 50 IU/ml IL-2
[9] = E+ cells, 7 to 8 days after triggering, 7 experiments, listed as Immobilized OKT3
[10] = E+ cells, 7 to 8 days after triggering, 7 experiments, listed as Soluble OKT3
[11] = PBL, 5 normal subjects, 8 days after activation

Compound: C[N+](C)(C)CCOC(N)=O [Carbacol, carbacol]
- CELL DEATH (GRADE 0-2) (Jurkat line JHMI-2.2): 1+ (1+(20 to 70% of cells dead))

Compound: C[C@H](CCC(=O)O)C[C@H](C)C[C@H](C)C(=O)/C=C(\O)[C@H](C)C[C@H](C)C/C=C/[C@@H](C)[C@@H](O)[C@@H](C)[C@@H](O)C[C@@H]1CC[C@@](C)([C@H]2CC[C@@](C)([C@@H](C)O)O2)O1 [Ionomycin, ionomycin]
- IL-2 [1]: < 10 U/ml
- S + G2 + M (CD28^+ T cells [2]): 6.6%
- IFN-γ (CD28^+ T cells [3]): 0 U/ml
- IL-2 (CD28^+ T cells [3]): <2 U/ml
- TNF-α/LT (CD28^+ T cells [3]): 0 U/ml

Compound: CCCCCCCCCCCCCC(=O)O[C@@H]1[C@@H](C)[C@@]2(O)[C@@H](C=C(CO)C[C@]3(O)C(=O)C(C)=C[C@@H]23)[C@@H]2C(C)(C)[C@]12OC(C)=O [PMA, phorbol myristate acetate]
- IL-2 [1]: < 10 U/ml
- IFN (CD28^+ T cells [4]; INITIAL, 24 h of culture): 152 pg/mL
- IL-2 (CD28^+ T cells [4]; INITIAL, 24 h of culture): .07 U/ml
- IL-4 (CD28^+ T cells [4]; INITIAL, 24 h of culture): <1 pg/mL
- IL-5 (CD28^+ T cells [4]; INITIAL, 24 h of culture): <1 pg/mL
- IFN (CD28^+ T cells [4]; [7]): <1 pg/mL
- IL-2 (CD28^+ T cells [4]; [7]): 0.6 U/ml
- IL-4 (CD28^+ T cells [4]; [7]): <1 pg/mL
- IL-5 (CD28^+ T cells [4]; [7]): <1 pg/mL
- ^3HTdR (CD28^+ T cells [5]; Dexamethasone 0 Nm): 5,000
- ^3HTdR (CD28^+ T cells [5]; Dexamethasone 25 Nm): 1,400
- ^3H-thymidine incorporation (CD28^+ T cells [5]; cells cultured with the single agent only): less than 150 cpm
- % INHIBIT (CD28^+ T cells [5]; inhibition of proliferation by dexamethasone): 72%
- S + G2 + M (CD28^+ T cells [2]): 5.5%
- IFN-γ (CD28^+ T cells [3]): 0 U/ml
- IL-2 (CD28^+ T cells [3]): <2 U/ml
- TNF-α/LT (CD28^+ T cells [3]): 0 U/ml

Compound: CO[C@H]1[C@@H](OC)C[C@H](C)[C@@H](OC)C2=CC(=O)C=C(NC(=O)/C(C)=C/C=C\[C@H](OC)[C@@H](OC(N)=O)/C(C)=C/[C@@H]1C)C2=O [herbimycin A]
- Tyrosine phosphorylation induced by anti-CD28 mAb [6]: nearly completely prevented
- PMA plus ionomycin-stimulated IL-2 secretion ([1]; herbimycin A 1 μM): resistant

Compound: OKT3: anti-CD3 mAb OKT3 (IgG2a), soluble or immobilized
- mean cytotoxicity directed at K562 (K562; [8]): 4.3 LU
- mean cytotoxicity directed at K562 (K562; [9]): 12 LU
- mean cytotoxicity directed at K562 (K562; [10]): 21 LU
- mean cytotoxicity directed at K562 (K562; [11]): 7.4 LU
- mean cytotoxicity directed at K562 (K562; T cells (E+), same 5 subjects): 7.7 LU
- Proliferation ^3H incorp. (PBL, T cells or BMMNC; Bone Marrow #171, AML, Relapsed): 23,479 cpm
- Proliferation ^3H incorp. (PBL, T cells or BMMNC; PBL P#632, non-Hodgkins lymphoma, pre-transplant): 58,670 cpm
- Proliferation ^3H incorp. (PBL, T cells or BMMNC; PBL P#635, Hodgkins lymphoma, pre-transplant): 27,758 cpm
- median expansion of cells (PBL, T cells or BMMNC; normal or autologous bone marrow, 4 experiments, 9 to 19 days): 89 fold
- mean cytotoxicity directed at Daudi (Daudi; [8]): 5.5 LU
- mean cytotoxicity directed at Daudi (Daudi; [9]): 22 LU
- mean cytotoxicity directed at Daudi (Daudi; [10]): 27 LU
- mean cytotoxicity directed at Daudi (Daudi; [11]): 15.0 LU
- mean cytotoxicity directed at Daudi (Daudi; T cells (E+), same 5 subjects): 14.3 LU
